The text below walks through data of patent US20130316016A1, “ANTIBACTERIAL OR ANTI-ACNE FORMULATIONS CONTAINING USNIC ACID OR AN USNATE AND A METAL SALT” (EVOCUTIS PLC, priority 2010, published 2013).

This experiment relates to Propionibacterium acnes NCTC 737. The experiment in a line: fixed ratio combination MIC/MBC assay. Type of experiment: cell-based. To be noted: for active against P. acnes NCTC 737: compound alone, statement in words; for MBC / MIC: test compound alone; for MBC: P. acnes NCTC 737; for MIC: P. acnes NCTC 737, pH 6.0, anaerobic, 37° C., 72 hours. Here is the method:
The test organism used was Propionibacterium acnes NCTC 737. This is a propionibacterial strain and is the type strain of the […]; it is fully susceptible to antibiotics. The propionibacteria are clinically significant due to their involvement in acne. They are also opportunistic pathogens in compromised hosts. Activity observed against these micro-organisms is expected to be a good predictor of activity against acne. The propionibacteria were cultured and maintained on Wilkins-Chalgren Anaerobe Medium (agar and broth) at pH 6.0; all cultures were incubated anaerobically at 37° C. for 72 hours. The following “fixed ratio combination MIC/MBC assay” was carried out to assess antimicrobial activity against the test organism. The method used a sterile 96-well microtitre plate, capable of holding about 200 μl of liquid per well. […] The culture medium was as described above. The wells were inoculated with a liquid suspension of freshly grown micro-organism and incubated under the conditions described above. After incubation, the microtitre plate was examined visually (with the aid of a light box) for cloudiness in each well, which would indicate microbial growth. The minimum inhibitory concentration (MIC) value was recorded as the lowest concentration of test compound alone, or the lowest concentration of the mixture of the two test compounds, required to inhibit microbial growth, i.e. where the liquid in the well remained clear. The assays were conducted in triplicate and included both negative (culture medium with no micro-organisms) and positive (culture medium plus diluting solvent(s) plus micro-organism) controls. […] These samples were then individually sub-cultured on antibiotic-free agar medium, under the incubation conditions described above. Following incubation they were examined visually for microbial growth. […] A fractional inhibitory concentration index (FICI) or fractional bactericidal concentration index (FBCI) was then calculated for each compound in the relevant mixture, and these two indices were added together to give an overall FICI or FBCI to indicate the mode of interaction. Thus for each mixture (of two compounds A and B) which was tested, the FIC for compound A (FICA)=MIC for (A+B)/MIC for A alone. Similarly the FIC for compound B (FICB)=MIC for (A+B)/MIC for B alone. The overall […]. FBCs and FBCIs were calculated in the same manner, using recorded MBC values.

One may read the MBC as the lowest tested concentration that kills the bacteria rather than only halting them. As usually defined, the MIC is the smallest concentration in the dilution series that meets the test's criterion for growth inhibition.

Marks after values point to notes of the source that are not given here. Some results are limits rather than exact numbers.

As for `CC(=O)c1c(O)c(C)c(O)c2c1OC1=CC(=O)C(C(C)=O)C(=O)C12C` (stereo not drawn) [Usnic acid, 2,6-diacetyl-7,9-dihydroxy-8,9b-dimethyl-1,3(2H,9bh)-dibenzofurandione], the “active against P. acnes NCTC 737” value is given as “active”.

For `CC(=O)[O-].CC(=O)[O-].[Cu+2]` [Copper (II) acetate, copper (II) acetate], the MBC is listed as >16.8* μg/ml and the MIC stood at 16.8 µg/mL.

Regarding `[Cl][Bi]([Cl])[Cl]` [Bismuth (III) chloride, bismuth (III) chloride], the “active against P. acnes NCTC 737” value is given as “active”, the MBC is reported as >19* μg/ml and the MIC was found to be 19 µg/mL.

As to `CC(=O)[O-].[Cu+]` [Copper (I) acetate, copper (I) acetate], the MBC came out at 22.2 µg/mL and the MIC turned out to be 11.1 µg/mL.

For the molecule `[Cl][Cu][Cl]` [Copper (II) chloride, copper (II) chloride], the MBC is on record as >22.25* μg/ml and the MIC is 12.2 µg/mL.

copper (II) D-gluconate: the MBC is >41.1* μg/ml and the MIC is >41.1* μg/ml.

As to `O=S(=O)([O-])[O-].[Cu+2]` [Copper (II) sulphate, copper (II) sulphate], the “active against P. acnes NCTC 737” value is recorded as “active”, the MBC is listed as >14.5* μg/ml and the MIC was >14.5* μg/ml.
